Test results reported in the supplement of paper PMC11061612.

What was measured:
Carboplatin = compound: C1CC(C1)(C(=O)[O-])C(=O)[O-].N.N.[Pt+2] [Carboplatin]; details: max 10 µM
Outline: (§1)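 In 1536-well plates, cancer cell lines in 7.5 μl DMEM/F12 or RPMI with 10% FBS spent 24 hours at 37°C and 5% CO2 and were then dosed for 72 hours with final DMSO typically 0.2%. Viability was read by CellTiter-Glo 2.0 luminescence and scaled between blank-well and DMSO-well means. The single-agent IC50 was fitted from dose responses using a logistic curve in a non-linear mixed effects model, and that logistic curve had two parameters.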

AZD5363 = compound: C1CN(CCC1(C(=O)N[C@@H](CCO)C2=CC=C(C=C2)Cl)N)C3=NC=NC4=C3C=CN4 [AZD5363]; details: max 10 µM
Outline: as §1

AZD1775 = compound: C=CCn1c(=O)c2cnc(Nc3ccc(N4CCN(C)CC4)cc3)nc2n1-c1cccc(C(C)(C)O)n1 [AZD1775]; details: max 3 µM
Outline: as §1

Trametinib = compound: CC(=O)Nc1cccc(-n2c(=O)n(C3CC3)c(=O)c3c(Nc4ccc(I)cc4F)n(C)c(=O)c(C)c32)c1 [Trametinib]; details: max 1 µM
Outline: as §1

Paclitaxel = compound: CC(=O)O[C@H]1C(=O)[C@@]2(C)[C@H]([C@H](OC(=O)c3ccccc3)[C@]3(O)C[C@H](OC(=O)[C@H](O)[C@@H](NC(=O)c4ccccc4)c4ccccc4)C(C)=C1C3(C)C)[C@]1(OC(C)=O)CO[C@@H]1C[C@@H]2O [Paclitaxel]; details: max 3 µM
Outline: as §1

Palbociclib = compound: CC(=O)c1c(C)c2cnc(Nc3ccc(N4CCNCC4)cn3)nc2n(C2CCCC2)c1=O [Palbociclib]; details: max 10 µM
Outline: as §1

AZD1390 = compound: CC(C)n1c(=O)n(C)c2cnc3cc(F)c(-c4ccc(OCCCN5CCCCC5)nc4)cc3c21 [AZD1390]; details: max 0.3 µM
Outline: as §1

Venetoclax = compound: CC1(C)CCC(CN2CCN(c3ccc(C(=O)NS(=O)(=O)c4ccc(NCC5CCOCC5)c([N+](=O)[O-])c4)c(Oc4cnc5[nH]ccc5c4)c3)CC2)=C(c2ccc(Cl)cc2)C1 [Venetoclax]; details: max 1 µM
Outline: as §1

Dasatinib = compound: CC1=C(C(=CC=C1)Cl)NC(=O)C2=CN=C(S2)NC3=CC(=NC(=N3)C)N4CCN(CC4)CCO [Dasatinib]; details: max 2 µM
Outline: as §1

SG3199 = compound: CC1=CN2[C@@H](C1)C=NC3=CC(=C(C=C3C2=O)OC)OCCCCCOC4=C(C=C5C(=C4)N=C[C@@H]6CC(=CN6C5=O)C)OC [SG3199]; details: max 0.001 µM
Outline: as §1

AZD2811 = compound: CCN(CCO)CCCOc1ccc2c(Nc3cc(CC(=O)Nc4cccc(F)c4)[nH]n3)ncnc2c1 [AZD2811]; details: max 1 µM
Outline: as §1

SN-38 = compound: CCc1c2c(nc3ccc(O)cc13)-c1cc3c(c(=O)n1C2)COC(=O)[C@]3(O)CC [SN-38]; details: max 0.3 µM
Outline: as §1

AZD0156 = compound: CN(C)CCCOc1ccc(-c2ccc3ncc4c(c3c2)n(C2CCOCC2)c(=O)n4C)cn1 [AZD0156]; details: max 3 µM
Outline: as §1

AZD4320 = compound: CN(CC[C@H](CSC1=CC=CC=C1)NC2=C(C=C(C=C2)S(=O)(=O)NC(=O)C3=CC=C(C=C3)N4CCC(CC4)[C@H](C5=CC=CC=C5C6=CC=C(C=C6)Cl)O)S(=O)(=O)C(F)(F)F)CCO [AZD4320]; details: max 1 µM
Outline: as §1

Alisertib = compound: COc1cc(Nc2ncc3c(n2)-c2ccc(Cl)cc2C(c2c(F)cccc2OC)=NC3)ccc1C(=O)O [Alisertib]; details: max 10 µM
Outline: as §1

Etoposide = compound: COc1cc([C@@H]2c3cc4c(cc3[C@@H](O[C@@H]3O[C@@H]5CO[C@@H](C)O[C@H]5[C@H](O)[C@H]3O)[C@H]3COC(=O)[C@H]23)OCO4)cc(OC)c1O [Etoposide]; details: max 10 µM
Outline: as §1

Gefitinib = compound: COc1cc2ncnc(Nc3ccc(F)c(Cl)c3)c2cc1OCCCN1CCOCC1 [Gefitinib]; details: max 10 µM
Outline: as §1

Prexasertib = compound: COc1cccc(OCCCN)c1-c1cc(Nc2cnc(C#N)cn2)n[nH]1 [Prexasertib]; details: max 1 µM
Outline: as §1

Doxorubicin = compound: COc1cccc2c1C(=O)c1c(O)c3c(c(O)c1C2=O)C[C@@](O)(C(=O)CO)C[C@@H]3O[C@H]1C[C@H](N)[C@H](O)[C@H](C)O1 [Doxorubicin]; details: max 1 µM
Outline: as §1

AZD5153 = compound: COc1nnc2ccc(N3CCC(c4ccc(OCCN5CCN(C)C(=O)[C@H]5C)cc4)CC3)nn12 [AZD5153]; details: max 1 µM
Outline: as §1

Lapatinib = compound: CS(=O)(=O)CCNCc1ccc(-c2ccc3ncnc(Nc4ccc(OCc5cccc(F)c5)c(Cl)c4)c3c2)o1 [Lapatinib]; details: max 10 µM
Outline: as §1

AZD8186 = compound: C[C@@H](Nc1cc(F)cc(F)c1)c1cc(C(=O)N(C)C)cc2c(=O)cc(N3CCOCC3)oc12 [AZD8186]; details: max 10 µM
Outline: as §1

Crizotinib = compound: C[C@@H](Oc1cc(-c2cnn(C3CCNCC3)c2)cnc1N)c1c(Cl)ccc(F)c1Cl [Crizotinib]; details: max 10 µM
Outline: as §1

Savolitinib = compound: C[C@@H](c1ccc2nccn2c1)n1nnc2ncc(-c3cnn(C)c3)nc21 [Savolitinib]; details: max 1 µM
Outline: as §1

AZD6738 = compound: C[C@@H]1COCCN1C2=NC(=NC(=C2)C3(CC3)[S@](=N)(=O)C)C4=C5C=CNC5=NC=C4 [AZD6738]; details: max 10 µM
Outline: as §1

AZD5991 = compound: Cc1c2c(nn1C)CSCc1cc(n(C)n1)CSc1cc(c3ccccc3c1)OCCCc1c(C(=O)O)n(C)c3c-2c(Cl)ccc13 [AZD5991]; details: max 1 µM
Outline: as §1

AZD7648 = compound: Cc1cc2ncnn2cc1Nc1ncc2c(n1)n(C1CCOCC1)c(=O)n2C [AZD7648]; details: max 10 µM
Outline: as §1

Taselisib = compound: Cc1nc(-c2cn3c(n2)-c2ccc(-c4cnn(C(C)(C)C(N)=O)c4)cc2OCC3)n(C(C)C)n1 [Taselisib]; details: max 10 µM
Outline: as §1

Selumetinib = compound: Cn1cnc2c(F)c(Nc3ccc(Br)cc3Cl)c(C(=O)NOCCO)cc21 [Selumetinib]; details: max 10 µM
Outline: as §1

SRA737 = compound: N#Cc1cnc(Nc2cc(NC[C@H]3CNCCO3)c(C(F)(F)F)cn2)cn1 [SRA737]; details: max 10 µM
Outline: as §1

MK-2206 = compound: NC1(c2ccc(-c3nc4ccn5c(=O)[nH]nc5c4cc3-c3ccccc3)cc2)CCC1 [MK-2206]; details: max 10 µM
Outline: as §1

Gemcitabine = compound: Nc1ccn([C@@H]2O[C@H](CO)[C@@H](O)C2(F)F)c(=O)n1 [Gemcitabine]; details: max 0.3 µM
Outline: as §1

[1] = compound: O=C(Nc1ccc2[nH]nc(-c3ccncc3)c2c1)[C@@H]1CCN(CC(=O)N2CCN(c3ccc(-c4ncccn4)cc3)CC2)C1; details: max 5 µM
Outline: as §1

Olaparib = compound: O=C(c1cc(Cc2n[nH]c(=O)c3ccccc23)ccc1F)N1CCN(C(=O)C2CC2)CC1 [Olaparib]; details: max 10 µM
Outline: as §1

5-Fluorouracil = compound: O=c1[nH]cc(F)c(=O)[nH]1 [5-Fluorouracil]; details: max 20 µM
Outline: as §1

Row | Cell Line | IC50, cell viability 72 h (Carboplatin) | IC50, cell viability 72 h (AZD5363) | IC50, cell viability 72 h (AZD1775) | IC50, cell viability 72 h (Trametinib) | IC50, cell viability 72 h (Paclitaxel) | IC50, cell viability 72 h (Palbociclib) | IC50, cell viability 72 h (AZD1390) | IC50, cell viability 72 h (Venetoclax) | IC50, cell viability 72 h (Dasatinib) | IC50, cell viability 72 h (SG3199) | IC50, cell viability 72 h (AZD2811) | IC50, cell viability 72 h (SN-38) | IC50, cell viability 72 h (AZD0156) | IC50, cell viability 72 h (AZD4320) | IC50, cell viability 72 h (Alisertib) | IC50, cell viability 72 h (Etoposide) | IC50, cell viability 72 h (Gefitinib) | IC50, cell viability 72 h (Prexasertib) | IC50, cell viability 72 h (Doxorubicin) | IC50, cell viability 72 h (AZD5153) | IC50, cell viability 72 h (Lapatinib) | IC50, cell viability 72 h (AZD8186) | IC50, cell viability 72 h (Crizotinib) | IC50, cell viability 72 h (Savolitinib) | IC50, cell viability 72 h (AZD6738) | IC50, cell viability 72 h (AZD5991) | IC50, cell viability 72 h (AZD7648) | IC50, cell viability 72 h (Taselisib) | IC50, cell viability 72 h (Selumetinib) | IC50, cell viability 72 h (SRA737) | IC50, cell viability 72 h (MK-2206) | IC50, cell viability 72 h (Gemcitabine) | IC50, cell viability 72 h [1] | IC50, cell viability 72 h (Olaparib) | IC50, cell viability 72 h (5-Fluorouracil)
1 | MDA-MB-175-VII (Breast Carcinoma) | > 10000 nM | 4360 nM | > 3000 nM | 463 nM | > 3000 nM | > 10000 nM | > 300 nM | > 1000 nM | > 2000 nM | > 1 nM | > 1000 nM | 110 nM | > 3000 nM | > 1000 nM | > 10000 nM | > 10000 nM | 1150 nM | > 1000 nM | > 1000 nM | > 1000 nM | 514 nM | > 10000 nM | > 10000 nM | > 1000 nM | > 10000 nM | > 1000 nM | > 10000 nM | 1790 nM | > 10000 nM | > 10000 nM | 3990 nM | > 300 nM | 794 nM | > 10000 nM | > 20000 nM
2 | MG-63 (Osteosarcoma) | > 10000 nM | 6890 nM | 2810 nM | > 1000 nM | 8.23 nM | > 10000 nM | > 300 nM | > 1000 nM | 354 nM | > 1 nM | > 1000 nM | 10.8 nM | > 3000 nM | > 1000 nM | 2030 nM | > 10000 nM | > 10000 nM | 72.7 nM | > 1000 nM | 256 nM | > 10000 nM | 6320 nM | 7070 nM | > 1000 nM | > 10000 nM | > 1000 nM | > 10000 nM | 1770 nM | > 10000 nM | > 10000 nM | > 10000 nM | 47.3 nM | 4710 nM | > 10000 nM | > 20000 nM
3 | NCI-H835 (Other Solid Carcinomas) | > 10000 nM | > 10000 nM | 1100 nM | > 1000 nM | 2770 nM | > 10000 nM | > 300 nM | > 1000 nM | > 2000 nM | > 1 nM | > 1000 nM | > 300 nM | > 3000 nM | 218 nM | – | > 10000 nM | > 10000 nM | > 1000 nM | > 1000 nM | > 1000 nM | > 10000 nM | > 10000 nM | 9990 nM | > 1000 nM | > 10000 nM | > 1000 nM | > 10000 nM | 5250 nM | > 10000 nM | > 10000 nM | > 10000 nM | > 300 nM | > 5000 nM | > 10000 nM | > 20000 nM
